This is an account of results in US6380387B1, “4-Pyrimidinyl-n-acyl-l phenylalanines” (Hoffmann-La Roche Inc., priority 1999, dated 2002).

The target of the assay is T1, VLA-4 (α4β1 integrin) (Homo sapiens, UniProt P05556+P13612).
T1 construct: Ramos cells bearing cell-surface VLA-4; endogenous in cells; host or cells: Ramos cells
The experiment in a line: Ramos (VLA-4)/VCAM-1 Cell-Based Screening Assay (cell adhesion). The following applies: Calcein-AM labeled Ramos cells adhering to immobilized recombinant human VCAM-1. The method, then: Ramos (VLA-4)/VCAM-1 Cell-Based Screening Assay Protocol
Soluble recombinant human VCAM-1 (mixture of 5- and 7-Ig domain) was purified from CHO cell culture media by inmmunoaffinity chromatography and maintained in a solution containing 0.1 M Tris-glycine (pH 7.5), 0.1 M NaCl, 5 mM EDTA, 1 mM PMSF, […] NaN3 and 10 μg/mL leupeptin. Calcein-AM was purchased from Molecular Probes Inc.
VLA-4 (α4β1 integrin) antagonist activity, defined as ability to compete with cell-surface VLA-4 for binding to immobilized VCAM-1, was quantitated using a Ramos-VCAM-1 cell adhesion assay. Ramos cells bearing cell-surface VLA-4, were labeled with a fluorescent dye (Calcein-AM) and allowed to bind VCAM-1 in the presence or absence of test compounds. A reduction in fluorescence intensity associated with adherent cells (% inhibition) reflected competitive inhibition of VLA-4 mediated cell adhesion by the test compound.
Initially, this entailed coating 96 well plates (Nunc Maxisorp) with recombinant human VCAM-1 (100 ng in 100 μl PBS), sealing each plate and allowing the plates to stand at 4° C. for ≈18 hr. The VCAM-coated plates were subsequently washed twice with 0.05% Tween-20 in PBS, and then blocked for 1 hr (room temperature) with 200 μl of Blocking Buffer (1% BSA/0.02% thimerosal) to reduce non-specific binding. Following the incubation with Blocking Buffer, plates were inverted, blotted and the remaining buffer aspirated. Each plate was then washed with 300 μl PBS, inverted and the remaining PBS aspirated.
Test compounds were dissolved in 100% DMSO and then diluted 1:25 in VCAM Cell Adhesion Assay Buffer (4 mM CaCl2, 4 mM MgCl2 in 50 mM TRIS-HCl, pH 7.5) (final DMSO=4%). A series of eight 1:4 dilutions were performed for each compound (general concentration range of 1 nM-12,500 nM). 100 μl/well of each dilution was added to the VCAM-coated plates, followed by 100 μl of Ramos cells (200,000 cells/well in 1% BSA/PBS). Plates containing test compounds and Ramos cells were allowed to incubate for 45 min at room temperature, after which 165 μl/well PBS was added. Plates were inverted to remove non-adherent cells, blotted and 300 μl/well PBS added. Plates were again inverted, blotted and the remaining buffer gently aspirated. 100 μl Lysis Buffer (0.1% SDS in 50 mM TRIS-HCl, pH 8.5) was added to each well and agitated for 2 min on a rotary shaking platform. The plates were then read for fluorescence intensity on a Cytofluor 2300 (Millipore) fluorecence measurement system (excitation=485 nm, emission=530 nm). The results are shown in the following Table II, where (A=IC50<100 nM, B=IC50<10000 nM): […]

T1 sequence (P13612 34-1032): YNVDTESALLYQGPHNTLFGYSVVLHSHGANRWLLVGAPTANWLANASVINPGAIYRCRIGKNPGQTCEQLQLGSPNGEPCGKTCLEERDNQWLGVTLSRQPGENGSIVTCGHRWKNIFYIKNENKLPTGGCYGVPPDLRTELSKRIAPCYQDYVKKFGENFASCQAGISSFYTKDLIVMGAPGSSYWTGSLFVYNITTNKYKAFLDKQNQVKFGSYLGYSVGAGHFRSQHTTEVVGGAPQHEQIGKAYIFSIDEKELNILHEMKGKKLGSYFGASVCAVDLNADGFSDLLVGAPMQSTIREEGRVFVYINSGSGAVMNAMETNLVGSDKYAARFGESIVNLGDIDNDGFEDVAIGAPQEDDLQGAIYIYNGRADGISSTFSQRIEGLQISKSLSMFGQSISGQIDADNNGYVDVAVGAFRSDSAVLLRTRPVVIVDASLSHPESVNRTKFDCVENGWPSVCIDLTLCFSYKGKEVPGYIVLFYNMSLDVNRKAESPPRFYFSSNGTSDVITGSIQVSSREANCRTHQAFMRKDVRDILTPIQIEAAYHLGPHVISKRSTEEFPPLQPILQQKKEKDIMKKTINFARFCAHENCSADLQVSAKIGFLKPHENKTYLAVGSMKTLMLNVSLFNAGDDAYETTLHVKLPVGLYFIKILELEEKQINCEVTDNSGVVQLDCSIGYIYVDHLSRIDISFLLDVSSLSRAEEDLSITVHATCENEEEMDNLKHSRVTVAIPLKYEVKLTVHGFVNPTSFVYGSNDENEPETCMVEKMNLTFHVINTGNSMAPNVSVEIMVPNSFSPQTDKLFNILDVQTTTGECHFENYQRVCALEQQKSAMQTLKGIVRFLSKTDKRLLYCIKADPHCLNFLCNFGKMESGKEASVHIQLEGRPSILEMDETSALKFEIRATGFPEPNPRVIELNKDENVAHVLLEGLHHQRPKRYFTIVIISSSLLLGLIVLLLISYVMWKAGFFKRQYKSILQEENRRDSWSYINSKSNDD
T1 sequence (P05556 21-798): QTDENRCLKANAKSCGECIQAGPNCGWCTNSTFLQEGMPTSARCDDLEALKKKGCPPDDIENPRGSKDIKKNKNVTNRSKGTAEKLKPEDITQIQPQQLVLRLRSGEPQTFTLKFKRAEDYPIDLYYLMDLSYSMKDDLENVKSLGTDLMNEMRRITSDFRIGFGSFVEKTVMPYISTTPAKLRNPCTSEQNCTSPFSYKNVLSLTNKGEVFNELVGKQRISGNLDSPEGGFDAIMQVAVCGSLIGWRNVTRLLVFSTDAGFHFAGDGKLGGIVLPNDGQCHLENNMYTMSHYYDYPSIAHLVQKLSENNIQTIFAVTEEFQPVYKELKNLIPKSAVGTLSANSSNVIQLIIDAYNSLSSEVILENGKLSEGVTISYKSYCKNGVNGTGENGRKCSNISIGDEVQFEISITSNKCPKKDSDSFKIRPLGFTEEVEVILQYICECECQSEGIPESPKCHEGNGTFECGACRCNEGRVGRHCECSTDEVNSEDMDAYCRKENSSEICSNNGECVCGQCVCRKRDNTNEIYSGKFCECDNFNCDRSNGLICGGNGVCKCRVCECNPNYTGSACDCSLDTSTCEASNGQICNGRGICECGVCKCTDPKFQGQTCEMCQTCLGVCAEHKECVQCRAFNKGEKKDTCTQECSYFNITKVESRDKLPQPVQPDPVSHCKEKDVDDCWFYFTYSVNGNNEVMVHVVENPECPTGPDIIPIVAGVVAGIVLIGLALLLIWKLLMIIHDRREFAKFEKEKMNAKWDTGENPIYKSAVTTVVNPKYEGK

In general, IC50 refers to the midpoint of a concentration-inhibition curve. For the compound `Cc1c(-c2ccc(C[C@H](NC(=O)c3c(Cl)cccc3Cl)C(=O)O)cc2)c(=O)n(C)c(=O)n1C` [Example 6, N-[(2,6-dichlorophenyl)carbonyl]-4-(1,3,6-trimethyl-2,4-dioxo-5-pyrimidinyl)-L-phenylalanine], the IC50 was below 100 nM.

`COCCC1(C(=O)N[C@@H](Cc2ccc(-c3c(C)n(C)c(=O)n(C)c3=O)cc2)C(=O)O)CCCC1` [Example 7, N-[[1-(2-methoxyethyl)cyclopentyl]carbonyl]-4-(1,3,6-trimethyl-2,4-dioxo-5-pyrimidinyl)-L-phenylalanine]: the IC50 is below 100 nM.

For `Cc1cccc(Br)c1C(=O)N[C@@H](Cc1ccc(-c2c(C)n(C)c(=O)n(C)c2=O)cc1)C(=O)O` [Example 8, N-[(2-bromo-6-methylphenyl)carbonyl]-4-(1,3,6-trimethyl-2,4-dioxo-5-pyrimidinyl)-L-phenylalanine], the IC50 is below 100 nM.

Turning to `Cc1cccc(Cl)c1C(=O)N[C@@H](Cc1ccc(-c2c(C)n(C)c(=O)n(C)c2=O)cc1)C(=O)O` [Example 9, N-[(2-chloro-6-methylphenyl)carbonyl]-4-(1,3,6-trimethyl-2,4-dioxo-5-pyrimidinyl)-L-phenylalanine], the IC50 was below 100 nM.

With `CCc1cccc(C)c1C(=O)N[C@@H](Cc1ccc(-c2c(C)n(C)c(=O)n(C)c2=O)cc1)C(=O)O` [Example 10, N-[(2-ethyl-6-methylphenyl)carbonyl]-4-(1,3,6-trimethyl-2,4-dioxo-5-pyrimidinyl)-L-phenylalanine], the IC50 was below 100 nM.

With `Cc1cccc(C(C)C)c1C(=O)N[C@@H](Cc1ccc(-c2c(C)n(C)c(=O)n(C)c2=O)cc1)C(=O)O` [Example 11, N-[[2-(2-methylethyl)-6-methylphenyl]carbonyl]-4-(1,3,6-trimethyl-2,4-dioxo-5-pyrimidinyl)-L-phenylalanine], the IC50 was below 100 nM.

As for `Cc1c(-c2ccc(C[C@H](NC(=O)c3c(F)cccc3F)C(=O)O)cc2)c(=O)n(C)c(=O)n1C` [Example 12, N-[(2,6-difluorophenyl)carbonyl]-4-(1,3,6-trimethyl-2,4-dioxo-5-pyrimidinyl)-L-phenylalanine], the IC50 was below 100 nM.

Turning to `Cc1c(-c2ccc(C[C@H](NC(=O)c3c(F)cccc3C(F)(F)F)C(=O)O)cc2)c(=O)n(C)c(=O)n1C` [Example 13, N-[(2-fluoro-6-(trifluoromethyl)phenyl)carbonyl]-4-(1,3,6-trimethyl-2,4-dioxo-5-pyrimidinyl)-L-phenylalanine], the IC50 is below 100 nM.

As to `Cc1c(-c2ccc(C[C@H](NC(=O)c3c(C(C)C)cccc3C(C)C)C(=O)O)cc2)c(=O)n(C)c(=O)n1C` [Example 14, N-[[2,6-di-(2-methylethyl)phenyl]carbonyl]-4-(1,3,6-trimethyl-2,4-dioxo-5-pyrimidinyl)-L-phenylalanine], the IC50 is below 10000 nM.

For `CCc1cccc(Cl)c1C(=O)N[C@@H](Cc1ccc(-c2c(C)n(C)c(=O)n(C)c2=O)cc1)C(=O)O` [Example 15, N-[(2-chloro-6-ethylphenyl)carbonyl]-4-(1,3,6-trimethyl-2,4-dioxo-5-pyrimidinyl)-L-phenylalanine], the IC50 is below 100 nM.

On to `CCCc1cccc(Cl)c1C(=O)N[C@@H](Cc1ccc(-c2c(C)n(C)c(=O)n(C)c2=O)cc1)C(=O)O` [Example 16, N-[(2-chloro-6-propylphenyl)carbonyl]-4-(1,3,6-trimethyl-2,4-dioxo-5-pyrimidinyl)-L-phenylalanine], for which the IC50 is below 100 nM.

For `CCn1c(C)c(-c2ccc(C[C@H](NC(=O)c3c(Cl)cccc3Cl)C(=O)O)cc2)c(=O)n(CC)c1=O` [Example 18, N-[(2,6-dichlorophenyl)carbonyl]-4-(1,3-diethyl-6-methyl-2,4-dioxo-5-pyrimidinyl)-L-phenylalanine], the IC50 was below 100 nM.

For the compound `CCn1c(C)c(-c2ccc(C[C@H](NC(=O)c3c(C)cccc3Cl)C(=O)O)cc2)c(=O)n(CC)c1=O` [Example 19, N-[(2-chloro-6-methylphenyl)carbonyl]-4-(1,3-diethyl-6-methyl-2,4-dioxo-5-pyrimidinyl)-L-phenylalanine], the IC50 is below 100 nM.

`CCn1c(C)c(-c2ccc(C[C@H](NC(=O)C3(CCOC)CCCC3)C(=O)O)cc2)c(=O)n(CC)c1=O` [Example 20, 4-(1,3-diethyl-6-methyl-2,4-dioxo-5-pyrimidinyl)-N-[[1-(2-methoxyethyl)cyclopentyl]carbonyl]-L-phenylalanine]: the IC50 was below 100 nM.

With `Cn1c(C(F)(F)F)c(-c2ccc(C[C@H](NC(=O)c3c(Cl)cccc3Cl)C(=O)O)cc2)c(=O)n(C)c1=O` [Example 21, N-[1-(2,6-dichlorophenyl)carbonyl]-4-(1,3-dimethyl-2,4-dioxo-6-(trifluoromethyl)-5-pyrimidinyl)-L-phenylalanine], the IC50 is below 100 nM.

On to `Cc1cccc(Cl)c1C(=O)N[C@@H](Cc1ccc(-c2c(C(F)(F)F)n(C)c(=O)n(C)c2=O)cc1)C(=O)O` [Example 22, N-[(2-chloro-6-methylphenyl)carbonyl]-4-[1,3-dimethyl-2,4-dioxo-6-(trifluoromethyl)-5-pyrimidinyl]-L-phenylalanine], for which the IC50 is below 100 nM.

As to `Cn1c(C(F)(F)F)c(-c2ccc(C[C@H](NC(=O)c3c(F)cccc3C(F)(F)F)C(=O)O)cc2)c(=O)n(C)c1=O` [Example 23, N-[[2-fluoro-6-(trifluoromethyl)phenyl]carbonyl]-4-(1,3-dimethyl-2,4-dioxo-6-(trifluoromethyl)-5-pyrimidinyl)-L-phenylalanine], the half-inhibitory concentration (IC50) is below 100 nM.

In the case of `Cc1cc(C[C@H](NC(=O)c2c(C)cccc2Cl)C(=O)O)ccc1-c1cn(C)c(=O)n(C)c1=O` [Example 24, N-[(2-chloro-6-methylphenyl)carbonyl]-4-(1,3-dimethyl-2,4-dioxo-5-pyrimidinyl)-3-methyl-L-phenylalanine], the IC50 was below 10000 nM.

As to `Cc1cc(C[C@H](NC(=O)c2c(Cl)cccc2Cl)C(=O)O)ccc1-c1cn(C)c(=O)n(C)c1=O` [Example 25, N-[(2,6-dichlorophenyl)carbonyl]-4-(1,3-dimethyl-2,4-dioxo-5-pyrimidinyl)-3-methyl-L-phenylalanine], the IC50 was below 100 nM.

Regarding `Cc1cc(C[C@H](NC(=O)c2c(Cl)cccc2Cl)C(=O)O)ccc1-c1c(C)n(C)c(=O)n(C)c1=O` [Example 26, N-[(2,6-dichlorophenyl)carbonyl]-4-(1,3,6-trimethyl-2,4-dioxo-5-pyrimidinyl)-3-methyl-L-phenylalanine], the IC50 is below 10000 nM.

For `CCOC(=O)[C@H](Cc1ccc(-c2c(C)n(C)c(=O)n(C)c2=O)cc1)NC(=O)c1c(Cl)cccc1Cl` [Example 27, N-[(2,6-dichlorophenyl)carbonyl]-4-(1,3,6-trimethyl-2,4-dioxo-5-pyrimidinyl)-L-phenylalanine ethyl ester], the IC50 is below 10000 nM.
